In patent US9694016B2 (Novartis AG, priority 2013, dated 2017):

Molecular target: b-Raf (V600E) (Homo sapiens (Human), UniProt P15056, V600E)
Conditions: read-out: b-Raf IC-50; AlphaScreen, 60 min pre-incubation, reaction 3 hours at room temperature

Chain of b-Raf (V600E) (P15056 whole entry V600E): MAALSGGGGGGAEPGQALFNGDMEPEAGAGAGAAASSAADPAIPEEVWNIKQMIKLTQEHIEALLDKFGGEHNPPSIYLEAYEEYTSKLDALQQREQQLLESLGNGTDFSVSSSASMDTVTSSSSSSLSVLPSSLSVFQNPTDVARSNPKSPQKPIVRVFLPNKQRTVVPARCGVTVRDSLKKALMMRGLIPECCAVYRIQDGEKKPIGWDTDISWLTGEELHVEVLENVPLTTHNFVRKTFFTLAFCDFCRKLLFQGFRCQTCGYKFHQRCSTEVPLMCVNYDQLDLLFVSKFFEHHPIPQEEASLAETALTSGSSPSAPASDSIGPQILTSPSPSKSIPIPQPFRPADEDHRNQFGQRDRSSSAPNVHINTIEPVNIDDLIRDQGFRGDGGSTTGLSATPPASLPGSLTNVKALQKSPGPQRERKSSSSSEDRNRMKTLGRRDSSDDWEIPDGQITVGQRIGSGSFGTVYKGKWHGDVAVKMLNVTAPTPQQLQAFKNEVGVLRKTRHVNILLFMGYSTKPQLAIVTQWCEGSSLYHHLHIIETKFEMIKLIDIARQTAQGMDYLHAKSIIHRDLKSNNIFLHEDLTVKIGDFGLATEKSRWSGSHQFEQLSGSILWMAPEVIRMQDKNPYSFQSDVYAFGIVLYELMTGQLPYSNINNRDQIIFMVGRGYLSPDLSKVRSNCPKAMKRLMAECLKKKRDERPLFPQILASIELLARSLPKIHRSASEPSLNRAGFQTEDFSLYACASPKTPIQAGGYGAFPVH

IC50 [nM] | Structure (SMILES)
3.84 | Cc1ccc(NC(=O)c2ccnc(C(C)(C)C#N)c2)cc1-c1cc(N2CCOCC2)nc(N2CC(O)C2)c1 [Example 1059, 2-(2-cyanopropan-2-yl)-N-(3-(2-(3-hydroxyazetidin-1-yl)-6-morpholinopyridin-4-yl)-4-methylphenyl)isonicotinamide]
3.93 | Cc1ccc(NC(=O)c2ccnc(C(F)(F)F)c2)cc1-c1cc(N2CCOCC2)nc(N2CC(O)C2)c1 [Example 1060, N-(3-(2-(3-hydroxyazetidin-1-yl)-6-morpholinopyridin-4-yl)-4-methylphenyl)-2-(trifluoromethyl)isonicotinamide]
3.05 | CCn1cc(C(=O)Nc2ccc(C)c(-c3cc(N4CCOCC4)nc(N4CC(O)C4)c3)c2)cc(C(F)(F)F)c1=O [Example 1061, 1-ethyl-N-(3-(2-(3-hydroxyazetidin-1-yl)-6-morpholinopyridin-4-yl)-4-methylphenyl)-6-oxo-5-(trifluoromethyl)-1,6-dihydropyridine-3-carboxamide]
0.98 | Cc1ccc(NC(=O)c2cccc(C(F)(F)F)c2)cc1-c1cc(NCC(C)(C)O)nc(N2CCOCC2)c1 [Example 1062, N-(3-(2-((2-hydroxy-2-methylpropyl)amino)-6-morpholinopyridin-4-yl)-4-methylphenyl)-3-(trifluoromethyl)benzamide]
1.48 | Cc1ccc(NC(=O)c2cccc(C(F)(F)F)c2)cc1-c1cc(NCC(O)C(F)(F)F)nc(N2CCOCC2)c1 (stereo not shown) [Example 1063, N-(4-methyl-3-(2-morpholino-6-((3,3,3-trifluoro-2-hydroxypropyl)amino)pyridin-4-yl)phenyl)-3-(trifluoromethyl)benzamide]
0.65 | Cc1ccc(NC(=O)c2cccc(C(F)(F)F)c2)cc1-c1cc(N2CCOCC2)nc(N2C[C@H](O)CC2=O)c1 [Example 1064, (R)—N-(3-(2-(4-hydroxy-2-oxopyrrolidin-1-yl)-6-morpholinopyridin-4-yl)-4-methylphenyl)-3-(trifluoromethyl)benzamide]
0.53 | Cc1ccc(NC(=O)c2cccc(C(F)(F)F)c2)cc1-c1cc(N2CCOCC2)nc(N2CC[C@@H](O)C2=O)c1 [Example 1065, (R)—N-(3-(2-(3-hydroxy-2-oxopyrrolidin-1-yl)-6-morpholinopyridin-4-yl)-4-methylphenyl)-3-(trifluoromethyl)benzamide]
0.58 | Cc1ccc(NC(=O)c2cccc(C(F)(F)F)c2)cc1-c1cc(NC(=O)C(C)O)nc(N2CCOCC2)c1 (stereo not shown) [Example 1066, N-(3-(2-(2-hydroxypropanamido)-6-morpholinopyridin-4-yl)-4-methylphenyl)-3-(trifluoromethyl)benzamide]
0.6 | Cc1ccc(NC(=O)c2ccnc(C(F)F)c2)cc1-c1cc(N2CCOCC2)nc(N2CC(O)C2)c1 [Example 1067, 2-(difluoromethyl)-N-(3-(2-(3-hydroxyazetidin-1-yl)-6-morpholinopyridin-4-yl)-4-methylphenyl)isonicotinamide]
0.72 | Cc1ccc(NC(=O)c2ccnc(C3CC3)c2)cc1-c1cc(N2CCOCC2)nc(N2CC(O)C2)c1 [Example 1068, 2-cyclopropyl-N-(3-(2-(3-hydroxyazetidin-1-yl)-6-morpholinopyridin-4-yl)-4-methylphenyl)isonicotinamide]
2.64 | Cc1ccc(NC(=O)c2ccnc(C(C)C)c2)cc1-c1cc(N2CCOCC2)nc(N2CC(O)C2)c1 [Example 1069, N-(3-(2-(3-hydroxyazetidin-1-yl)-6-morpholinopyridin-4-yl)-4-methylphenyl)-2-isopropylisonicotinamide]
2.41 | Cc1ccc(NC(=O)c2cnnc(C(F)(F)F)c2)cc1-c1cc(N2CCOCC2)nc(N2CC(O)C2)c1 [Example 1070, N-(3-(2-(3-hydroxyazetidin-1-yl)-6-morpholinopyridin-4-yl)-4-methylphenyl)-6-(trifluoromethyl)pyridazine-4-carboxamide]
2.08 | Cc1ccc(NC(=O)c2ccnc(C3(C#N)CC3)c2)cc1-c1cc(N2CCOCC2)nc(N2CC(O)C2)c1 [Example 1071, 2-(1-cyanocyclopropyl)-N-(3-(2-(3-hydroxyazetidin-1-yl)-6-morpholinopyridin-4-yl)-4-methylphenyl)isonicotinamide]
1.74 | Cc1ccc(NC(=O)c2ccnc(C(F)F)c2)cc1-c1cc(N2CCOCC2)nc(N2CC(C)(O)C2)c1 [Example 1072, 2-(difluoromethyl)-N-(3-(2-(3-hydroxy-3-methylazetidin-1-yl)-6-morpholinopyridin-4-yl)-4-methylphenyl)isonicotinamide]
2.99 | Cc1ccc(NC(=O)c2cnnc(C(F)(F)F)c2)cc1-c1cc(N2CCOCC2)nc(N2CC(C)(O)C2)c1 [Example 1073, N-(3-(2-(3-hydroxy-3-methylazetidin-1-yl)-6-morpholinopyridin-4-yl)-4-methylphenyl)-6-(trifluoromethyl)pyridazine-4-carboxamide]
1.86 | Cc1ccc(NC(=O)c2cccc(S(C)(=O)=O)c2)cc1-c1cc(N2CCOCC2)nc(N2CC(C)(O)C2)c1 [Example 1074, N-(3-(2-(3-hydroxy-3-methylazetidin-1-yl)-6-morpholinopyridin-4-yl)-4-methylphenyl)-3-(methylsulfonyl)benzamide]

IC50 [nM] | Structure (SMILES)
682 | Cc1ccc(NC(=O)c2cnncc2C(F)F)cc1-c1cc(N2CCOCC2)nc(N2CC(O)C2)c1 [Example 1075, 5-(difluoromethyl)-N-(3-(2-(3-hydroxyazetidin-1-yl)-6-morpholinopyridin-4-yl)-4-methylphenyl)pyridazine-4-carboxamide]
2.31 | Cc1ccc(NC(=O)c2cnnc(C3CC3)c2)cc1-c1cc(N2CCOCC2)nc(N2CC(C)(O)C2)c1 [Example 1076, 6-cyclopropyl-N-(3-(2-(3-hydroxy-3-methylazetidin-1-yl)-6-morpholinopyridin-4-yl)-4-methylphenyl)pyridazine-4-carboxamide]
0.85 | Cc1ccc(NC(=O)c2cccc(C(F)F)c2)cc1-c1cc(N2CCOCC2)nc(N2CC(O)C2)c1 [Example 1077, 3-(difluoromethyl)-N-(3-(2-(3-hydroxyazetidin-1-yl)-6-morpholinopyridin-4-yl)-4-methylphenyl)benzamide]
0.67 | Cc1ccc(NC(=O)c2ccnc(C(C)(F)F)c2)cc1-c1cc(N2CCOCC2)nc(N2CC(O)C2)c1 [Example 1078, 2-(1,1-difluoroethyl)-N-(3-(2-(3-hydroxyazetidin-1-yl)-6-morpholinopyridin-4-yl)-4-methylphenyl)isonicotinamide]
4.64 | Cc1ncc(NC(=O)c2cccc(C(F)F)c2)cc1-c1cc(N2CCOCC2)nc(N2CC(O)C2)c1 [Example 1079, 3-(difluoromethyl)-N-(2′-(3-hydroxyazetidin-1-yl)-2-methyl-6′-morpholino-[3,4′-bipyridin]-5-yl)benzamide]
12.9 | Cc1ncc(NC(=O)c2ccnc(C(C)(F)F)c2)cc1-c1cc(N2CCOCC2)nc(N2CC(O)C2)c1 [Example 1080, 2-(1,1-difluoroethyl)-N-(2′-(3-hydroxyazetidin-1-yl)-2-methyl-6′-morpholino-[3,4′-bipyridin]-5-yl)isonicotinamide]
6.43 | Cc1ncc(NC(=O)c2ccnc(C(C)C)c2)cc1-c1cc(N2CCOCC2)nc(N2CC(O)C2)c1 [Example 1081, N-(2′-(3-hydroxyazetidin-1-yl)-2-methyl-6′-morpholino-[3,4′-bipyridin]-5-yl)-2-isopropylisonicotinamide]
58.2 | Cc1ncc(NC(=O)c2ccnc(C(C)(C)O)c2)cc1-c1cc(N2CCOCC2)nc(N2CC(O)C2)c1 [Example 1082, N-(2′-(3-hydroxyazetidin-1-yl)-2-methyl-6′-morpholino-[3,4′-bipyridin]-5-yl)-2-(2-hydroxypropan-2-yl)isonicotinamide]
35.2 | Cc1ncc(NC(=O)c2ccnc(C(C)(C)C#N)c2)cc1-c1cc(N2CCOCC2)nc(N2CC(O)C2)c1 [Example 1083, 2-(2-cyanopropan-2-yl)-N-(2′-(3-hydroxyazetidin-1-yl)-2-methyl-6′-morpholino-[3,4′-bipyridin]-5-yl)isonicotinamide]
23.3 | Cc1ncc(NC(=O)c2cccc(S(C)(=O)=O)c2)cc1-c1cc(N2CCOCC2)nc(N2CC(O)C2)c1 [Example 1084, N-(2′-(3-hydroxyazetidin-1-yl)-2-methyl-6′-morpholino-[3,4′-bipyridin]-5-yl)-3-(methylsulfonyl)benzamide]
108 | Cc1ncc(NC(=O)c2cc(CN(C)C)cc(C(F)(F)F)c2)cc1-c1cc(N2CCOCC2)nc(N2CC(O)C2)c1 [Example 1085, 3-((dimethylamino)methyl)-N-(2′-(3-hydroxyazetidin-1-yl)-2-methyl-6′-morpholino-[3,4′-bipyridin]-5-yl)-5-(trifluoromethyl)benzamide]
20.7 | CCn1cc(C(=O)Nc2cnc(C)c(-c3cc(N4CCOCC4)nc(N4CC(O)C4)c3)c2)cc(C(F)(F)F)c1=O [Example 1086, 1-ethyl-N-(2′-(3-hydroxyazetidin-1-yl)-2-methyl-6′-morpholino-[3,4′-bipyridin]-5-yl)-6-oxo-5-(trifluoromethyl)-1,6-dihydropyridine-3-carboxamide]
26.5 | CCN1CCN(c2cc(C(=O)Nc3cnc(C)c(-c4cc(N5CCOCC5)nc(N5CC(O)C5)c4)c3)cc(C(F)(F)F)c2)CC1 [Example 1087, 3-(4-ethylpiperazin-1-yl)-N-(2′-(3-hydroxyazetidin-1-yl)-2-methyl-6′-morpholino-[3,4′-bipyridin]-5-yl)-5-(trifluoromethyl)benzamide]
4.06 | Cc1ncc(NC(=O)c2ccnc(C(F)(F)F)c2)cc1-c1cc(N2CCOCC2)nc(N2CC(O)C2)c1 [Example 1088, N-(2′-(3-hydroxyazetidin-1-yl)-2-methyl-6′-morpholino-[3,4′-bipyridin]-5-yl)-2-(trifluoromethyl)isonicotinamide]
71.4 | Cc1ncc(NC(=O)c2ccnc(C(C)(C)C)c2)cc1-c1cc(N2CCOCC2)nc(N2CC(O)C2)c1 [Example 1089, 2-(tert-butyl)-N-(2′-(3-hydroxyazetidin-1-yl)-2-methyl-6′-morpholino-[3,4′-bipyridin]-5-yl)isonicotinamide]
